{"source": "ChEMBL document CHEMBL4800731", "about": "“Data for DCP probe JNJ-65355394” (2021)", "key": {"[1]": {"biological_target": "C-C chemokine receptor type 1 (Homo sapiens) (UniProt P32246)", "assay": "hCCR1 Cerep panel"}, "[2]": {"biological_target": "Adenosine receptor A1 (Homo sapiens) (UniProt P30542)", "sequence (P30542 whole entry)": "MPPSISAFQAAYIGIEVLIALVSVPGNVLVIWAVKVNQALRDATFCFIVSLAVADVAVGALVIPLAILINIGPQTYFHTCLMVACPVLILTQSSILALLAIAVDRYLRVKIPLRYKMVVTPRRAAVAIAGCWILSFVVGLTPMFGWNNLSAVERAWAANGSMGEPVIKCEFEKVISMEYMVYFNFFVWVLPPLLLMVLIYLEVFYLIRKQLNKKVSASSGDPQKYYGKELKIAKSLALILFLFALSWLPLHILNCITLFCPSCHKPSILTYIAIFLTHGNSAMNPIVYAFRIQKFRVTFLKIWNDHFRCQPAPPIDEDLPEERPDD", "assay": "hA1 Cerep panel"}, "[3]": {"biological_target": "T1, Muscarinic acetylcholine receptor M2 (Homo sapiens) (UniProt P08172)", "T1 sequence (whole entry)": "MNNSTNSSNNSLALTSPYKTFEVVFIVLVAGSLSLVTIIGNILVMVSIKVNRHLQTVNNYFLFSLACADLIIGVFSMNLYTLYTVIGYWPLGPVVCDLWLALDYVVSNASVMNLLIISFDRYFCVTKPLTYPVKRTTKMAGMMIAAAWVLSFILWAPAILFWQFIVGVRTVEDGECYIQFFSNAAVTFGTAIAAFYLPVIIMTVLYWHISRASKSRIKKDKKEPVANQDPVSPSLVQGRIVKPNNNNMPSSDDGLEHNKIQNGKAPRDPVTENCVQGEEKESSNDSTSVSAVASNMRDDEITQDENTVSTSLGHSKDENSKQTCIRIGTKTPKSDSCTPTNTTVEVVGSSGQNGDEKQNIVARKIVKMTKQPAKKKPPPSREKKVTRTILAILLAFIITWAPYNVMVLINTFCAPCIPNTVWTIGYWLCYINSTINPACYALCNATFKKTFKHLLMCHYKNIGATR", "assay": "hM2 Cerep panel"}, "[4]": {"biological_target": "T2, Sodium-dependent dopamine transporter (Homo sapiens, UniProt Q01959)", "T2 sequence (Q01959 whole entry)": "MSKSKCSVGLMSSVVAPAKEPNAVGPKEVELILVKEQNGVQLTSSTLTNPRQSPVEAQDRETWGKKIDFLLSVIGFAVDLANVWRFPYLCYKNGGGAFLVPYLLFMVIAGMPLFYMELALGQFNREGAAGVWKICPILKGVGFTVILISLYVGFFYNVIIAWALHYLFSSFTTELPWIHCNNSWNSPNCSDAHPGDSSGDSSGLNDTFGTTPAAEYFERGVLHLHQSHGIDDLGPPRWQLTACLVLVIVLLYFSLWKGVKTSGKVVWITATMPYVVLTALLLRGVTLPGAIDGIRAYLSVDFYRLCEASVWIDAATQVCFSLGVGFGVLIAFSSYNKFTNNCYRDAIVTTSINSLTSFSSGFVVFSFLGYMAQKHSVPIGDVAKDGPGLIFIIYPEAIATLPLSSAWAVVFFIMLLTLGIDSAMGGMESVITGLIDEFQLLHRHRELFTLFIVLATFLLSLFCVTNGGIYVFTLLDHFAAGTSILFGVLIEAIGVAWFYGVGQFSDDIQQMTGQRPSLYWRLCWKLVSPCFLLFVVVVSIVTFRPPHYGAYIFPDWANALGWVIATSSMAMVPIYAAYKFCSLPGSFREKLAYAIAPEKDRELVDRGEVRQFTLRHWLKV", "assay": "hDAT Cerep panel"}, "[5]": {"biological_target": "T3, Alpha-1B adrenergic receptor (Homo sapiens) (UniProt P35368)", "T3 sequence (whole entry)": "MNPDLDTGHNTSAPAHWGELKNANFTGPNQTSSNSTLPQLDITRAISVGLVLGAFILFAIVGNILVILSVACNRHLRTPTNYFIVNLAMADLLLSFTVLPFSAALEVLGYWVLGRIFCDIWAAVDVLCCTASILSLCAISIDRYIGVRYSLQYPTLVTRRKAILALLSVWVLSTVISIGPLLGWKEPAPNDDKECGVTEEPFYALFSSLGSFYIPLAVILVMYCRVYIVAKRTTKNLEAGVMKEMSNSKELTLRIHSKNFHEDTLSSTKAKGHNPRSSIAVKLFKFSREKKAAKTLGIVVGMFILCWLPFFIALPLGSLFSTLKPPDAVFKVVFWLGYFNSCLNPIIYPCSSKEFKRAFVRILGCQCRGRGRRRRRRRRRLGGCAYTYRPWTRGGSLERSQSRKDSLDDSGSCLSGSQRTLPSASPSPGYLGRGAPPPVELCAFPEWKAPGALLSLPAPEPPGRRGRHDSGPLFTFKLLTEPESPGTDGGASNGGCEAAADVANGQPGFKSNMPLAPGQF", "assay": "hAb1 Cerep panel"}, "[6]": {"biological_target": "Nociceptin receptor (Homo sapiens) (UniProt P41146)", "sequence (P41146 whole entry)": "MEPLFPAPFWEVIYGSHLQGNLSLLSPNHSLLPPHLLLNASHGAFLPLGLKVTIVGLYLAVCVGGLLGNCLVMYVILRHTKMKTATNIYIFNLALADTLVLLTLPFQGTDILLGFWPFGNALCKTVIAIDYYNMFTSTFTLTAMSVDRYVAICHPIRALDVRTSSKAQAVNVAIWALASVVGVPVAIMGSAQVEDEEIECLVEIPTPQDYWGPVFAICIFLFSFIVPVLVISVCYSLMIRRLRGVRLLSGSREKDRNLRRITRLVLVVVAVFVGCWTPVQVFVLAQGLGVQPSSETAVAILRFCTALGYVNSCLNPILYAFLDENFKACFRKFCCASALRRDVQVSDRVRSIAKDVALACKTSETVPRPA", "assay": "hORL1 Cerep panel"}, "Rattus norvegicus [7]": {"species_on_record": "Rattus norvegicus", "assay": "rCaCH (nitrendipine) Cerep panel"}, "[8]": {"biological_target": "D(1A) dopamine receptor (Homo sapiens) (UniProt P21728)", "assay": "hD1 Cerep panel"}, "[9]": {"biological_target": "Vasoactive intestinal polypeptide receptor 1 (Homo sapiens) (UniProt P32241)", "assay": "hVPAC1 Cerep panel"}, "[10]": {"biological_target": "5-hydroxytryptamine receptor 1B (Rattus norvegicus) (UniProt P28564)", "sequence (P28564 whole entry)": "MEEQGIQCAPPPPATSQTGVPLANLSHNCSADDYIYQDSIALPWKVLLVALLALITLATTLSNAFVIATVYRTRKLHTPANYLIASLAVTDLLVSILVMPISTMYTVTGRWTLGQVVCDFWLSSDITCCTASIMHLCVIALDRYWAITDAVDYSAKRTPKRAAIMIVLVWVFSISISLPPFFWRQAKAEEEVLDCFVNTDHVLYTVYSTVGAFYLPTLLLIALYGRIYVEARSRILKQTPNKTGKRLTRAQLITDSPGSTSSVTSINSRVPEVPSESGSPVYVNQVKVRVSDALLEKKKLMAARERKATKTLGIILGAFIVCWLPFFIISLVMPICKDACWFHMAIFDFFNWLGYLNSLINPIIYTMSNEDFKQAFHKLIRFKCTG", "assay": "r5HT1B Cerep panel"}, "[11]": {"biological_target": "Kappa-type opioid receptor (Homo sapiens, UniProt P41145)", "sequence (P41145 whole entry)": "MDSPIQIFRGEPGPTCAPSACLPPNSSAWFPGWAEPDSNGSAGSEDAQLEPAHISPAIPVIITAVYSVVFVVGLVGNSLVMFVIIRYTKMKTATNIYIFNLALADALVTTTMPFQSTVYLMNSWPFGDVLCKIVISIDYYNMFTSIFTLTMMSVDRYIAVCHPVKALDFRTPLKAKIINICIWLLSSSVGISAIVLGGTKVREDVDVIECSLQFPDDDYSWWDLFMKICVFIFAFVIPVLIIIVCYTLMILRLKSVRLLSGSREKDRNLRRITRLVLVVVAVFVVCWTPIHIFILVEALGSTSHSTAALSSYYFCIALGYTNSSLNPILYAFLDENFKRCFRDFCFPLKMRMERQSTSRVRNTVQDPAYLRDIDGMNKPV", "assay": "GPCRScan assay: inhibition of KOR", "set-up": "radioligand conc. used [nm] 0.6 – 1.2, parental cells stable HEK"}, "[12]": {"biological_target": "5-hydroxytryptamine receptor 6 (Homo sapiens) (UniProt P50406)", "sequence (P50406 whole entry)": "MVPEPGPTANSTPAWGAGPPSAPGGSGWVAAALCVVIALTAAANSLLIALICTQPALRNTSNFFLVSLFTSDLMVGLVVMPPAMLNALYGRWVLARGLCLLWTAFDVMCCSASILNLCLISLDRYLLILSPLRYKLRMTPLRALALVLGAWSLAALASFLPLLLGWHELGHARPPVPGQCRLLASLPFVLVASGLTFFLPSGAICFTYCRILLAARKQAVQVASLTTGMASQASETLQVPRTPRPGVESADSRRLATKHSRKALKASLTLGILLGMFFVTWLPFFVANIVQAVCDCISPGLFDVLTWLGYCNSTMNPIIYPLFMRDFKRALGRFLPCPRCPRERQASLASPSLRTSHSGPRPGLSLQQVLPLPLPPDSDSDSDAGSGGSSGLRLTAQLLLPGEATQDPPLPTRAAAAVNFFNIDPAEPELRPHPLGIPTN", "assay": "h5HT6 Cerep panel"}, "[13]": {"biological_target": "D(3) dopamine receptor (Homo sapiens) (UniProt P35462)", "details": "Compound concentration 10.0 uM"}, "Rattus norvegicus [14]": {"species_on_record": "Rattus norvegicus", "assay": "rBZD Cerep panel"}, "[15]": {"assay": "cML1 Cerep panel"}, "Rattus norvegicus [16]": {"species_on_record": "Rattus norvegicus", "assay": "rCaCH (D888) Cerep panel"}, "Rattus norvegicus [17]": {"species_on_record": "Rattus norvegicus", "assay": "rSKCaCH Cerep panel"}, "[18]": {"biological_target": "Neurotensin receptor type 1 (Homo sapiens) (UniProt P30989)", "assay": "hNT1 Cerep panel"}, "[19]": {"biological_target": "Alpha-2A adrenergic receptor (Rattus norvegicus) (UniProt P22909)", "sequence (P22909 whole entry)": "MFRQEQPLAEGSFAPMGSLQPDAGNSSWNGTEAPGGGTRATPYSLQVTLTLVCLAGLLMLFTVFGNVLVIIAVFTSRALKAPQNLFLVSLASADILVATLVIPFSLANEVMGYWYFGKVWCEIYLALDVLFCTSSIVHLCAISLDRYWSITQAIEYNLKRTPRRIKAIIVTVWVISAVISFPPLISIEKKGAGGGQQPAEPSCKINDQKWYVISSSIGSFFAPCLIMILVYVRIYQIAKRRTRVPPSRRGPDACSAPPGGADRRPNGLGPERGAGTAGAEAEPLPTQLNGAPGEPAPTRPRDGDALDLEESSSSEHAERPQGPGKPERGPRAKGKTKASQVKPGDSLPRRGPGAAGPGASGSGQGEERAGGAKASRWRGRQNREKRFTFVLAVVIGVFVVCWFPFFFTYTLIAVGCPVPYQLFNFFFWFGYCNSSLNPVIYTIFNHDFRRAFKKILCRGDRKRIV", "assay": "rAa2 Cerep panel"}, "[20]": {"biological_target": "Muscarinic acetylcholine receptor M3 (Homo sapiens) (UniProt P20309)", "assay": "hM3 Cerep panel"}, "Rattus norvegicus [21]": {"species_on_record": "Rattus norvegicus", "assay": "rGABA Cerep panel"}, "[22]": {"biological_target": "5-hydroxytryptamine receptor 2B (Homo sapiens) (UniProt P41595)", "sequence (P41595 whole entry)": "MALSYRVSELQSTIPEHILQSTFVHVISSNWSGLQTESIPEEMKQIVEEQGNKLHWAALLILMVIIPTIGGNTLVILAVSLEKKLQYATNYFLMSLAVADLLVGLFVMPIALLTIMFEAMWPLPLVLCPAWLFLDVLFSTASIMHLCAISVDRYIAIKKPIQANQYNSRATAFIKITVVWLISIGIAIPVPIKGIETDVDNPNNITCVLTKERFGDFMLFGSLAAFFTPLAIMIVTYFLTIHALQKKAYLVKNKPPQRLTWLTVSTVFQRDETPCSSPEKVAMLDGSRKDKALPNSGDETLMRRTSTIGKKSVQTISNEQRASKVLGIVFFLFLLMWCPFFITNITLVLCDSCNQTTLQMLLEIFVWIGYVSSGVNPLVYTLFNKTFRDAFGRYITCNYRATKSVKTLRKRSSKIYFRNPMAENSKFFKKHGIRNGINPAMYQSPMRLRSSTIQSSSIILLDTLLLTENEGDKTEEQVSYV", "assay": "h5HT2B Cerep panel"}, "[23]": {"biological_target": "Histamine H2 receptor (Homo sapiens) (UniProt P25021)", "sequence (P25021 whole entry)": "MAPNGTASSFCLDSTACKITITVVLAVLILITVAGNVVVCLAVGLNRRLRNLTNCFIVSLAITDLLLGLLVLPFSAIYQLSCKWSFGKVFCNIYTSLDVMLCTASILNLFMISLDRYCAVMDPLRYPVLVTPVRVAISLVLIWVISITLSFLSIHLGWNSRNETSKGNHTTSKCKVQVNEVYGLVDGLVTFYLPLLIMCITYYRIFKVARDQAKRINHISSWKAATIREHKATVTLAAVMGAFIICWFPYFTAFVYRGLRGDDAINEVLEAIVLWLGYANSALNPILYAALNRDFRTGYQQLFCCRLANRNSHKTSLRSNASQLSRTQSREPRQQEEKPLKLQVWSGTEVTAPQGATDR", "assay": "hH2 Cerep panel"}, "Rattus norvegicus [24]": {"species_on_record": "Rattus norvegicus", "assay": "rCLCH Cerep panel"}, "[25]": {"biological_target": "D(2) dopamine receptor (Homo sapiens) (UniProt P14416)", "assay": "hD2S Cerep panel"}, "[26]": {"biological_target": "Vasopressin V1a receptor (Homo sapiens) (UniProt P37288)", "assay": "hV1a Cerep panel"}, "[27]": {"biological_target": "Histamine H1 receptor (Homo sapiens) (UniProt P35367)", "assay": "hH1 Cerep panel"}, "[28]": {"biological_target": "5-hydroxytryptamine receptor 2A (Homo sapiens) (UniProt P28223)", "assay": "h5HT2A Cerep panel"}, "[29]": {"biological_target": "5-hydroxytryptamine receptor 5A (Homo sapiens) (UniProt P47898)", "assay": "h5HT5A Cerep panel"}, "[30]": {"biological_target": "Neuropeptide Y receptor type 2 (Homo sapiens) (UniProt P49146)", "assay": "hNPY2 Cerep panel"}, "[31]": {"biological_target": "Neuromedin-K receptor (Homo sapiens) (UniProt P29371)", "sequence (P29371 whole entry)": "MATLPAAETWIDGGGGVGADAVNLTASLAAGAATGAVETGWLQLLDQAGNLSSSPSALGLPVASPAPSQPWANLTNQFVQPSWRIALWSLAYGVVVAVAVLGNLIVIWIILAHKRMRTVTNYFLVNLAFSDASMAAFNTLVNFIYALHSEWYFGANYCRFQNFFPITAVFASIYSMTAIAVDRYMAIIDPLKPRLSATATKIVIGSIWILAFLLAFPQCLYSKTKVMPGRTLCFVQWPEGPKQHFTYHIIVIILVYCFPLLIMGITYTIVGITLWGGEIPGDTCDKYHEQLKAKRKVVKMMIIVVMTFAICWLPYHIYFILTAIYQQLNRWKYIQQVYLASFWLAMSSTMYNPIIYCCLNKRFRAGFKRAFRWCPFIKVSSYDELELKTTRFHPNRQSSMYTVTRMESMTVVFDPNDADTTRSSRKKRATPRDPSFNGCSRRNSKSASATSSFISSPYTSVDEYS", "assay": "hNK3 Cerep panel"}, "[32]": {"biological_target": "Histamine H2 receptor (Homo sapiens) (UniProt P25021)", "details": "Compound concentration 10.0 uM"}, "Rattus norvegicus [33]": {"species_on_record": "Rattus norvegicus", "assay": "rNaCH Cerep panel"}, "[34]": {"biological_target": "T4, Sodium-dependent serotonin transporter (Homo sapiens, UniProt P31645)", "assay": "h5HTT Cerep panel"}, "[35]": {"biological_target": "Endothelin-1 receptor (Homo sapiens) (UniProt P25101)", "assay": "hETA Cerep panel"}, "[36]": {"biological_target": "5-hydroxytryptamine receptor 7 (Homo sapiens) (UniProt P34969)", "assay": "h5HT7 Cerep panel"}, "[37]": {"biological_target": "T2, Sodium-dependent dopamine transporter", "assay": "GPCRScan assay: inhibition of DAT", "set-up": "radioligand conc. used [nm] 3.6 – 16.0, parental cells stable HEK"}, "[38]": {"biological_target": "Sigma intracellular receptor 2 (Homo sapiens, UniProt Q5BJF2)", "sequence (Q5BJF2 whole entry)": "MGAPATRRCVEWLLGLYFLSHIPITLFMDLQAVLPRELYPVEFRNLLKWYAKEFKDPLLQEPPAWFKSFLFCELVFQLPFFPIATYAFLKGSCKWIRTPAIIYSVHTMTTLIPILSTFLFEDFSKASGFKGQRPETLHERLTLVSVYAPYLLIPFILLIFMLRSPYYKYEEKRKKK", "assay": "GPCRScan assay: inhibition of Sigma 2", "set-up": "radioligand conc. used [nm] 5.0, parental cells HEKT"}, "[39]": {"biological_target": "Sigma non-opioid intracellular receptor 1 (Homo sapiens, UniProt Q99720)", "assay": "GPCRScan assay: inhibition of Sigma 1", "set-up": "radioligand conc. used [nm] 4.0 – 5.0, parental cells HEKT"}, "[40]": {"biological_target": "Alpha-2B adrenergic receptor (Homo sapiens, UniProt P18089)", "sequence (P18089 whole entry)": "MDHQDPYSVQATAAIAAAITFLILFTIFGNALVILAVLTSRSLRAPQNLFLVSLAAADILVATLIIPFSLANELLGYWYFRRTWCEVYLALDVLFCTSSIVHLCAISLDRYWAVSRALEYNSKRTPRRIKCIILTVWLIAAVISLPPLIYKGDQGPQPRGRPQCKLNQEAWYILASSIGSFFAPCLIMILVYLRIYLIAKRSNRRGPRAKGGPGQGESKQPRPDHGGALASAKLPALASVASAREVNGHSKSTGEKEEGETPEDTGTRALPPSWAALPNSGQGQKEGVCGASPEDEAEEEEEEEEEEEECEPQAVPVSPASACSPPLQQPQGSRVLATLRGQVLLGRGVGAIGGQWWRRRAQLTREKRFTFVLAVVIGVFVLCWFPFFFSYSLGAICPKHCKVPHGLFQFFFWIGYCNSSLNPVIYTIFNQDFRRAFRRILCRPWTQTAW", "assay": "GPCRScan assay: inhibition of Alpha2B", "set-up": "radioligand conc. used [nm] 1.5 – 2.0, parental cells HEKT"}, "[41]": {"biological_target": "Histamine H4 receptor (Homo sapiens) (UniProt Q9H3N8)", "details": "Compound concentration 10.0 uM"}, "[42]": {"biological_target": "T4, Sodium-dependent serotonin transporter", "assay": "GPCRScan assay: inhibition of SERT", "set-up": "radioligand conc. used [nm] 1.5 – 2.0, parental cells stable HEK"}, "[43]": {"biological_target": "Muscarinic acetylcholine receptor M5 (Homo sapiens) (UniProt P08912)", "details": "Compound concentration 10.0 uM"}}}
{"smiles": "CC(=O)Nc1ncc(CN2CCC[C@H](Cc3cc(C)nc(C)c3)C2)s1", "note": "[JNJ-65355394]", "values": [{"measurement": "effect", "setting": "[1]", "result": -1.85, "unit": "%"}, {"measurement": "effect", "setting": "[2]", "result": -13.2, "unit": "%"}, {"measurement": "effect", "setting": "[3]", "result": 25.4, "unit": "%"}, {"measurement": "effect", "setting": "[4]", "result": 19.3, "unit": "%"}, {"measurement": "effect", "setting": "[5]", "result": 11.2, "unit": "%"}, {"measurement": "effect", "setting": "[6]", "result": -5.7, "unit": "%"}, {"measurement": "effect", "setting": "Rattus norvegicus [7]", "result": 14, "unit": "%"}, {"measurement": "effect", "setting": "[8]", "result": 20.1, "unit": "%"}, {"measurement": "effect", "setting": "[9]", "result": -10.1, "unit": "%"}, {"measurement": "effect", "setting": "[10]", "result": -9.65, "unit": "%"}, {"measurement": "Ki", "setting": "[11]; read-out: Ki", "result": 0.773, "unit": "µM"}, {"measurement": "Ki", "setting": "[11]; read-out: pKi (converted)", "result": 0.741, "unit": "µM"}, {"measurement": "effect", "setting": "[12]", "result": 14.2, "unit": "%"}, {"measurement": "inhibition", "setting": "[13]", "result": 10.3, "unit": "%"}, {"measurement": "effect", "setting": "Rattus norvegicus [14]", "result": -16.6, "unit": "%"}, {"measurement": "effect", "setting": "[15]", "result": 11.5, "unit": "%"}, {"measurement": "effect", "setting": "Rattus norvegicus [16]", "result": 4.9, "unit": "%"}, {"measurement": "effect", "setting": "Rattus norvegicus [17]", "result": 35.4, "unit": "%"}, {"measurement": "effect", "setting": "[18]", "result": 4.15, "unit": "%"}, {"measurement": "effect", "setting": "[19]", "result": 69, "unit": "%"}, {"measurement": "effect", "setting": "[20]", "result": 45.5, "unit": "%"}, {"measurement": "effect", "setting": "Rattus norvegicus [21]", "result": -9.8, "unit": "%"}, {"measurement": "effect", "setting": "[22]", "result": 6.3, "unit": "%"}, {"measurement": "effect", "setting": "[23]", "result": 11.4, "unit": "%"}, {"measurement": "effect", "setting": "Rattus norvegicus [24]", "result": -5.7, "unit": "%"}, {"measurement": "effect", "setting": "[25]", "result": 10.5, "unit": "%"}, {"measurement": "effect", "setting": "[26]", "result": 7.65, "unit": "%"}, {"measurement": "effect", "setting": "[27]", "result": 5.7, "unit": "%"}, {"measurement": "effect", "setting": "[28]", "result": 4.1, "unit": "%"}, {"measurement": "effect", "setting": "[29]", "result": -7.65, "unit": "%"}, {"measurement": "effect", "setting": "[30]", "result": -2.7, "unit": "%"}, {"measurement": "effect", "setting": "[31]", "result": 7, "unit": "%"}, {"measurement": "inhibition", "setting": "[32]", "result": 3.45, "unit": "%"}, {"measurement": "effect", "setting": "Rattus norvegicus [33]", "result": 1.6, "unit": "%"}, {"measurement": "effect", "setting": "[34]", "result": -7.05, "unit": "%"}, {"measurement": "effect", "setting": "[35]", "result": 3.6, "unit": "%"}, {"measurement": "effect", "setting": "[36]", "result": -1.65, "unit": "%"}]}
{"smiles": "CC(=O)Nc1nc(CN2CCC[C@H](Cc3cc(C)nc(C)c3)C2)cs1", "note": "[JNJ-73924149]", "values": [{"measurement": "Ki", "setting": "[37]; read-out: Ki", "result": 5.28, "unit": "µM"}, {"measurement": "Ki", "setting": "[37]; read-out: pKi (converted)", "result": 5.25, "unit": "µM"}, {"measurement": "Ki", "setting": "[38]; read-out: Ki", "result": 1.4, "unit": "µM"}, {"measurement": "Ki", "setting": "[38]; read-out: pKi (converted)", "result": 1.35, "unit": "µM"}, {"measurement": "Ki", "setting": "[39]", "result": 0.0633, "unit": "µM"}, {"measurement": "Ki", "setting": "[40]; read-out: Ki", "result": 3.69, "unit": "µM"}, {"measurement": "Ki", "setting": "[40]; read-out: pKi (converted)", "result": 3.67, "unit": "µM"}, {"measurement": "inhibition", "setting": "[41]", "result": -0.6, "unit": "%"}, {"measurement": "Ki", "setting": "[42]; read-out: Ki", "result": 2.61, "unit": "µM"}, {"measurement": "Ki", "setting": "[42]; read-out: pKi (converted)", "result": 2.57, "unit": "µM"}, {"measurement": "inhibition", "setting": "[43]", "result": -6.15, "unit": "%"}]}
